In patent US7186830B2, “Tricyclic 2-pyrimidone compounds useful as HIV reverse transcriptase inhibitors” (Bristol-Myers Squibb Company, priority 2002, dated 2007):

Row | melting point | Structure (SMILES)
1 | 277.3 to 278.1 °C (dec.) | Cc1nc2c(c(=O)[nH]1)Nc1ccc(C#N)cc1C2(COC(C)C)C(F)(F)F (centres unmarked) [Example 7, 8-Cyano-10-(isopropoxymethyl)-2-methyl-10-(trifluoromethyl)-5,10-dihydropyrimido[5,4-b]quinolin-4(3H)-one]
2 | > 280 °C | N#Cc1ccc2c(c1)C(CCC1CC1)(C(F)(F)F)c1nc[nH]c(=O)c1N2 (centres unmarked) [Example 9, 8-Cyano-10-(2-cyclopropylethyl)-10-(trifluoromethyl)-5,10-dihydropyrimido[5,4-b]quinolin-4(3H)-one]
